Experimental data reported in patent US20200087248A1, “Fluoroallylamine Derivative And Use Thereof” (SICHUAN KELUN-BIOTECH BIOPHARMACEUTICAL CO., LTD., priority 2017, published 2020).
Structures can show the parent of a compound that is named as a salt.

Key:
VAP-1 = biological target: T1, VAP-1 (Homo sapiens, UniProt Q16853); experiment: Inhibition of the enzymatic activity of VAP-1 in vitro (Amplex Red); assay type: biochemical; details: VAP-1 protein about 20 nM, 10 min pre-incubation, benzylamine substrate; read-out: IC50, inhibition against the enzymatic activity of VAP-1
T1 construct: purchased R&D Systems
T1 sequence (Q16853 1-763): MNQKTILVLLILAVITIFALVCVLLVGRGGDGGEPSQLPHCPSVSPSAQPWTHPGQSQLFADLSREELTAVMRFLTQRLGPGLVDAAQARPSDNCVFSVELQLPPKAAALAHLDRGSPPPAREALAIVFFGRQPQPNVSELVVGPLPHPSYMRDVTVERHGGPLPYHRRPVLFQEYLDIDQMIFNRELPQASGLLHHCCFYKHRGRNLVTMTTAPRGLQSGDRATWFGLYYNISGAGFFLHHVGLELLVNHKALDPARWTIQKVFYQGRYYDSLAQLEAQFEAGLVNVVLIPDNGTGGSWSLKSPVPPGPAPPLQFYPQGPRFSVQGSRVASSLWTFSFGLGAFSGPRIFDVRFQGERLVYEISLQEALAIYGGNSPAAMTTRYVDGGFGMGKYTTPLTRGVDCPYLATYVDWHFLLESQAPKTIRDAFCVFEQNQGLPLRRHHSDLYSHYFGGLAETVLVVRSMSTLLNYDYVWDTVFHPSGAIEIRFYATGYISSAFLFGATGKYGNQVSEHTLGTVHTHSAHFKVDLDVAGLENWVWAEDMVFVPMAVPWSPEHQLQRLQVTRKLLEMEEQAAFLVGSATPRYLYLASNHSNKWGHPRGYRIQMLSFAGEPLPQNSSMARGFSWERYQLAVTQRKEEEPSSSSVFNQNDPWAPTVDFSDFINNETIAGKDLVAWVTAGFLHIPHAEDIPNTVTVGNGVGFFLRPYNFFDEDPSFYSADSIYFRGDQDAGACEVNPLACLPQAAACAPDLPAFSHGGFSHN
How it was run: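 About 20 nM recombinant VAP-1 preincubated with compound 10 min at RT in 50 mM PBS pH 7.4; reaction started with […] benzylamine, 1 U/mL HRP and 200 μM Amplex Red. Kinetic fluorescence (Ex/Em 540/590 nm) slope gave rate; IC50 by four-parameter fit.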

DAO = biological target: T2, DAO (Homo sapiens, UniProt P19801); experiment: Inhibition of the enzymatic activity of DAO; assay type: biochemical; details: DAO 15 μg/ml, histamine substrate; read-out: IC50, inhibition against the enzymatic activity of DAO
T2 construct: purchased R&D Systems
T2 sequence (P19801 20-751): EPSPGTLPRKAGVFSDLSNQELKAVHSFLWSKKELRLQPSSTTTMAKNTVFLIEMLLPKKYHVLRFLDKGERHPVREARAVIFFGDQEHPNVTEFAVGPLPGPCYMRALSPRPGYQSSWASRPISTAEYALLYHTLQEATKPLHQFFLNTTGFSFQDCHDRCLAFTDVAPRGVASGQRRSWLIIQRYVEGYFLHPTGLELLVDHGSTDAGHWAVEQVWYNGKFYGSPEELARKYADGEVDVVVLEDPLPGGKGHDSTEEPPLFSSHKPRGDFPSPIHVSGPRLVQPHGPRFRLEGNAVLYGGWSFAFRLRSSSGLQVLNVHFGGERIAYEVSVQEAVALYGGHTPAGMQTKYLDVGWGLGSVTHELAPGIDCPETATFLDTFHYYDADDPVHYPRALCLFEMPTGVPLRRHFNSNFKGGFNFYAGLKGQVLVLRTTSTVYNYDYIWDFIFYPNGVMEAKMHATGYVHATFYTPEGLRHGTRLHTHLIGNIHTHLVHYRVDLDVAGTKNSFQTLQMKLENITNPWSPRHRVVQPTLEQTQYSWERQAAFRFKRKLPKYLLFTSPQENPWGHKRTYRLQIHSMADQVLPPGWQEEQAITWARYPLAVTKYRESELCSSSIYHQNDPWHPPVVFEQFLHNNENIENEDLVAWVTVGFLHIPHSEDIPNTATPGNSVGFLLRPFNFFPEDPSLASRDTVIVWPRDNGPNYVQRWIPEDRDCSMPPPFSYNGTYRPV
Procedure: Inhibition Experiment Against the Enzymatic Activity of DAO (Diamine Oxidase)
1. Test kit: Amplex® Red Monoamine Oxidase Assay, Manufacturer: ThermoFisher
Protein: DAO, manufacturer: R&D Systems
DAO protein (15 μg/ml) and different concentrations of the test compound were pre-incubated at room temperature for 20 minutes, and then 100 μM Histamine-dihydrochloride, 1 U/mL HRP and 200 μM Amplex Red reagent were added to start the reaction. The inhibition rate of each concentration groups were calculated according to the experimental method of MAO-A.

| Compound | IC50 (VAP-1) [nM] | IC50 (DAO) [nM] |
| --- | --- | --- |
| NC/C(=C\F)COc1ccc(-c2ncccn2)cc1 [TM39-E, (E)-2-(4-(2-pyrimidyl)phenoxymethyl)-3-fluoroallylamine trifluoroacetate] | 1.2 ± 0.2 | – |
| NC/C(=C/F)COc1ccc(C(=O)NCc2ccccn2)cc1 [TM112-Z, (Z)-4-((2-aminomethyl-3-fluoroallyl)oxy)-N-(pyridin-2-ylmethyl)benzamide trifluoroacetate] | 6.5 ± 1.8 | > 100 |
| (E)-6-((2-(methylamino)-3-fluoroallyl)oxy)-2-methyl-3,4-dihydroisoquinolin-1(2H)-one trifluoroacetate [TM66-E] | 2 ± 0.4 | > 100 |
| (E)-6-((2-(methylamino)-3-fluoroallyl)oxy)-3,3-dimethyl-3,4-dihydro-isoquinolin-1(2H)-one trifluoroacetate [TM38-E] | 4.7 ± 1.1 | > 1000 |

More lines, in order of falling IC50 (VAP-1), values ahead:

| IC50 (VAP-1) [nM] | IC50 (DAO) [nM] | Compound |
| --- | --- | --- |
| 4.3 ± 0.6 | > 100 | NC/C(=C\F)COc1ccc(C(=O)NC2CCOCC2)cc1 [TM76-E, (E)-N-(tetrahydro-2H-pyran-4-yl)-4-((2-aminomethyl-3-fluoroallyl)oxy)-benzamide trifluoroacetate] |
| 3.7 ± 0.8 | – | NC/C(=C/F)COc1ccc2c(c1)CCNC2=O [TM26-Z, (Z)-6-((2-aminomethyl-3-fluoroallyl)oxy)-3,4-dihydroisoquinolin-1(2H)-one trifluoroacetate] |
| 3 ± 0.7 | > 1000 | NC/C(=C\F)COc1ccc2c(c1)C(=O)CC2 [TM7-E, (E)-6-((2-aminomethyl-3-fluoroallyl)oxy)-2,3-dihydro-1-indenone trifluoroacetate] |
| 2.85 ± 0.3 | – | CC1(C)Cc2cc(OC/C(=C/F)CN)ccc2C(=O)N1 [HC38-E, (E)-6-((2-(aminomethyl)-3-fluoroallyl)oxy)-3,3-dimethyl-3,4-dihydroisoquinolin-1(2H)-one hydrochloride] |
| 1.6 ± 0.2 | > 100 | NC/C(=C\F)COc1ccc(C(=O)Nc2ccccc2)cc1 [TM1-E, (E)-N-phenyl-4-((2-aminomethyl-3-fluoroallyl)oxy)-benzamide trifluoroacetate] |
